Measured values published in ChEMBL document CHEMBL1129110, “O-alkylcarboxylate oxime and N-hydroxyurea analogs of substituted indole leukotriene biosynthesis inhibitors” (Bioorg Med Chem Lett, 1996).
Active and inactive are the calls of the source. No cut-off for these calls is given here.

Assays:
5-lipoxygenase/FLAP [1] = target: T1, 5-lipoxygenase/FLAP (Homo sapiens, UniProt P09917+P20292); assay: (§1) Human whole blood was stimulated with calcium ionophore (A23187) and LTB 4 measured by enzyme immunoassay; assay type: functional, tissue-based
T1 sequence (P09917 whole entry): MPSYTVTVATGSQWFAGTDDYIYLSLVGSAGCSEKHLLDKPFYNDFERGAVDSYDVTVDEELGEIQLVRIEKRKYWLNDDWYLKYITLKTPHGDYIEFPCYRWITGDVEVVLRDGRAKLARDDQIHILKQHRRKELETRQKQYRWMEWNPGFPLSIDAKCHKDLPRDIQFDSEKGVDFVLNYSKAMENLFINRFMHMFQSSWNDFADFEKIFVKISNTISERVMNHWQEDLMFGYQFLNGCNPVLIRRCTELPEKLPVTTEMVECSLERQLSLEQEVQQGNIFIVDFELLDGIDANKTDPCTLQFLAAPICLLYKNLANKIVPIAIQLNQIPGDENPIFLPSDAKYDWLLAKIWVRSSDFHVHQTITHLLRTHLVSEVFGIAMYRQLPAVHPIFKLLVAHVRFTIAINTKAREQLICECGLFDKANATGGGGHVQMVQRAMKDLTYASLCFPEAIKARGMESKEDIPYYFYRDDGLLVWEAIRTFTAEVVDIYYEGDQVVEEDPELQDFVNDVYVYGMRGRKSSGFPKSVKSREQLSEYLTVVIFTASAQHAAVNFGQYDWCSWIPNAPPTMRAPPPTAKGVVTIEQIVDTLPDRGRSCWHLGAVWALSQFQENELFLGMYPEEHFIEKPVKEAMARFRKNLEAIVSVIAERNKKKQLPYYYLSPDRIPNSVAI
T1 sequence (P20292 whole entry): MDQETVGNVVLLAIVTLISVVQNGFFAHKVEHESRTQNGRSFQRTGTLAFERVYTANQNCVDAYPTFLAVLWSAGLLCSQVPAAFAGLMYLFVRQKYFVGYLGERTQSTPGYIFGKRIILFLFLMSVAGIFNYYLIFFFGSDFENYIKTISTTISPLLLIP

5-lipoxygenase/FLAP [2] = target: T1, 5-lipoxygenase/FLAP; assay: Inhibition of calcium ionophore (A23187) stimulated LTB4 formation in human neutrophils; assay type: functional
Rattus norvegicus [3] = assay: Compound was tested in vivo against rat anaphylaxis in the peritoneal cavity; assay type: functional
[4] = target: T2, Polyunsaturated fatty acid 5-lipoxygenase (Rattus norvegicus, UniProt P12527); assay: Compound was tested for inhibition of 5-lipoxygenase activity in a broken cell supernatant rat basophilic leukemia cells
T2 sequence (P12527 whole entry): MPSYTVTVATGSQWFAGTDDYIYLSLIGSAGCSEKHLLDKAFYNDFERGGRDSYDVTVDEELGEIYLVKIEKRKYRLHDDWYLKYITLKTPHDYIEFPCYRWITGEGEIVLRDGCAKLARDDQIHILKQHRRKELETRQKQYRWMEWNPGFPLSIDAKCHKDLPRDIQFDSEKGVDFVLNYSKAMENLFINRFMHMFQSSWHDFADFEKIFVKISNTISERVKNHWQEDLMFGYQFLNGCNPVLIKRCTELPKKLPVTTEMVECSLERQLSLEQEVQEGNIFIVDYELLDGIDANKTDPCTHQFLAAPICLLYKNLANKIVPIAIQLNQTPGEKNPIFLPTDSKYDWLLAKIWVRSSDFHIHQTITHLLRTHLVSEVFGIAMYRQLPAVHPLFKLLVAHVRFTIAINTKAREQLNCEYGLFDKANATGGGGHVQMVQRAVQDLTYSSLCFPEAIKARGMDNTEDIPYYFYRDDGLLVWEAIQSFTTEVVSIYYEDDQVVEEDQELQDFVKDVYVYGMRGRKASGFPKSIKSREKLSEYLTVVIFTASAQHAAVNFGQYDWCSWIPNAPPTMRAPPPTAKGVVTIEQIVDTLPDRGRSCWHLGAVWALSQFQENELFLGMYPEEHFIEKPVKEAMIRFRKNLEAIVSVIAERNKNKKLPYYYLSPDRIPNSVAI

Rattus norvegicus [5] = assay: Compound was tested in vivo against rat anaphylaxis in the peritoneal cavity at 60 umol/kg; assay type: functional
Rattus norvegicus [6] = assay: Compound was tested in vivo against rat anaphylaxis in the peritoneal cavity at concentration of 1 umol/kg; assay type: functional
Homo sapiens [7] = organism: Homo sapiens; assay: as §1; assay type: functional
Rattus norvegicus [8] = assay: Compound was tested in vivo against rat anaphylaxis in the peritoneal cavity at concentration of 100 umol/kg; Not active; assay type: functional, organism-based
[9] = target: T2, Polyunsaturated fatty acid 5-lipoxygenase; assay: Compound was tested for inhibition of 5-lipoxygenase activity in a broken cell supernatant rat basophilic leukemia cells at concentration of 32 uM; Not active
[10] = target: T2, Polyunsaturated fatty acid 5-lipoxygenase; assay: Compound was tested for inhibition of 5-lipoxygenase activity in a broken cell supernatant rat basophilic leukemia cells at concentration of 50 uM; Not active
Rattus norvegicus [11] = assay: Compound was tested in vivo against rat anaphylaxis in the peritoneal cavity; Not active; assay type: functional, organism-based
Homo sapiens [12] = organism: Homo sapiens; assay: Compound was tested for inhibition of calcium ionophore (A23187) stimulated LTB4 formation in human neutrophils at 100 nM; assay type: functional
Rattus norvegicus [13] = assay: Compound was tested in vivo against rat anaphylaxis in the peritoneal cavity at concentration of 100 umol/kg; assay type: functional

Structure (SMILES)	IC50 (5-lipoxygenase/FLAP [1])	IC50 (5-lipoxygenase/FLAP [2])	ED50 (Rattus norvegicus [3])	other results
CC(C)(/C=N/OCC(=O)O)Cc1c(SC(C)(C)C)c2cc(OCc3cccc(Cl)n3)ccc2n1Cc1ccc(Cl)cc1	230 nM	10 nM	2.6 µmol/kg	–
CC(C)c1ccc2c(c1)c(SC(C)(C)C)c(CC(C)(C)NC(=O)N(C)O)n2Cc1ccc(Cl)cc1	1300 nM	0.15 nM	–	IC50 [4]: 7.5 µM; inhibition in vivo at 60 µmol/kg (Rattus norvegicus [5]): 49%
CC(C)(C)Sc1c(CC(C)(C)C(=O)O)n(Cc2ccc(Cl)cc2)c2ccc(OCc3nccs3)cc12	–	7 nM	–	inhibition in vivo at 1 µmol/kg (Rattus norvegicus [6]): 16%; Inhibition (Homo sapiens [7]): 41%
CC(C)c1ccc2c(c1)c(SC(C)(C)C)c(CC(C)(C)/C=N/OCC(=O)O)n2Cc1ccc(Cl)cc1	680 nM	0.1 nM	3 µmol/kg	–
CC(C)(C)Sc1c(CC(C)(C)C(=O)O)n(Cc2ccc(Cl)cc2)c2ccc(OCc3ccc4ccccc4c3)cc12	4420 nM	12 nM	–	ED50 (Rattus norvegicus [8]): inactive
CC(C)(C)Sc1c(CC(C)(C)C(=O)O)n(Cc2ccc(Cl)cc2)c2ccc(OCc3cccc(Cl)n3)cc12	110 nM	17 nM	1.2 µmol/kg	–
CC(C)(C)Sc1c(CC(C)(C)C(=O)O)n(Cc2ccc(Cl)cc2)c2ccc(OCc3ccccn3)cc12	50 nM	–	0.16 µmol/kg	–
CC(C)(/C=N/OCC(=O)O)Cc1c(SC(C)(C)C)c2cc(OCc3cscn3)ccc2n1Cc1ccc(Cl)cc1	180 nM	11 nM	44 µmol/kg	–
CC(C)(/C=N/OCC(=O)O)Cc1c(SC(C)(C)C)c2cc(OCc3ccc4ccccc4n3)ccc2n1Cc1ccc(Cl)cc1	600 nM	12 nM	0.24 µmol/kg	–
CC(C)(C)Sc1c(CC(C)(C)C(=O)O)n(Cc2ccc(Cl)cc2)c2ccc(OCc3ccc4ccccc4n3)cc12 [QUIFLAPON]	200 nM	8 nM	1.6 µmol/kg	–
CC(C)(C)Sc1c(CC(C)(C)C(=O)O)n(Cc2ccc(Cl)cc2)c2ccc(OCc3cscn3)cc12	40 nM	4 nM	1.8 µmol/kg	–
CC(C)c1ccc2c(c1)c(SC(C)(C)C)c(CC(C)(C)C(=O)O)n2Cc1ccc(Cl)cc1	340 nM	0.03 nM	16 µmol/kg	IC50 [9]: Not Active
CC(C)c1ccc2c(c1)c(SC(C)(C)C)c(CC(C)(C)CNC(N)=O)n2Cc1ccc(Cl)cc1	970 nM	0.18 nM	11 µmol/kg	IC50 [10]: Not Active
CO/N=C/C(C)(C)Cc1c(SC(C)(C)C)c2cc(C(C)C)ccc2n1Cc1ccc(Cl)cc1	11000 nM	0.34 nM	–	ED50 (Rattus norvegicus [11]): inactive
CC(C)(C)Sc1c(CC(C)(C)C(=O)O)n(Cc2ccc(Cl)cc2)c2ccc(OCc3ccncc3)cc12	840 nM	–	–	ED50 (Rattus norvegicus [8]): inactive; inhibition at 0.1 µM (Homo sapiens [12]): 100%
CC(C)c1ccc2c(c1)c(SC(C)(C)C)c(CC(C)(C)/C=N/O)n2Cc1ccc(Cl)cc1	2200 nM	0.27 nM	–	inhibition in vivo at 100 µmol/kg (Rattus norvegicus [13]): 46%
CC(C)(C)Sc1c(CC(C)(C)C(=O)O)n(Cc2ccc(Cl)cc2)c2ccc(OCc3cccnc3)cc12	1090 nM	17 nM	–	inhibition in vivo at 100 µmol/kg (Rattus norvegicus [13]): 4%
CC(C)(C)Sc1c(CC(C)(C)C(=O)O)n(Cc2ccc(Cl)cc2)c2ccc(OCc3nc4ccccc4s3)cc12	360 nM	10 nM	–	inhibition in vivo at 1 µmol/kg (Rattus norvegicus [6]): 71%
CC(C)c1ccc2c(c1)c(SC(C)(C)C)c(CC(C)(C)CN(O)C(N)=O)n2Cc1ccc(Cl)cc1	1600 nM	0.17 nM	46 µmol/kg	IC50 [4]: 7.5 µM
CC(C)(/C=N/OCC(=O)O)Cc1c(SC(C)(C)C)c2cc(OCc3ccccn3)ccc2n1Cc1ccc(Cl)cc1	600 nM	13 nM	0.12 µmol/kg	–
